Series [1] deals with MCTs. In words: Dynamic PET/MRI in mice with pre-treatment. It counts as in vivo, mouse. The note with it: for AUC0–60 min gall bladder / AUC0–60 min kidney cortex / AUC0–60 min liver / AUC0–60 min small intestine / AUC0–60 min whole blood: mouse, in vivo. On the procedure:
(§1) The biodistribution of [^18F]FACH in mice was assessed by small animal PET (Nanoscan, Mediso, Budapest, Hungary) with dynamic 60 min emission recordings, followed by T1 weighted GRE MR (TR = 15.0 ms, TE = 2.4 ms, FA = 25°) imaging for anatomical correlations and attenuation correction. The mice (n = 20) weighing 32.2 ± 2.9 g were anaesthetised with 2% isoflurane in 60% oxygen, and placed on a thermostatically heated animal bed. The animals then received i.v. injections of 0.9% saline (control), reference compound (10 mg/kg), or α-CCA-Na (25 mg/kg) ten min prior or 20 min after (displacement studies) [^18F]FACH administration (2.3–8.6 MBq, 0.5–11.2 nmol/kg). List mode PET data were binned as a series of attenuation-corrected sinogram frames (12 × 10 s, 6 × 30 s, 5 × 60 s and 10 × 300 s) and were reconstructed by Ordered Subset Expectation Maximization (OSEM3D) with four iterations, six subsets and a voxel size of 0.4 mm³ (Nucline v2.01, Mediso).
(§2) The analysis of reconstructed datasets was performed with PMOD software (v4.103, PMOD Technologies LLC, Zurich, Switzerland).
(§3) Data are shown in mean ± standard deviation (SD). Group differences were tested by Student’s t-test, with p < 0.05 designated as significant. Area Under the Curves (AUCs) and corresponding 95% confidence intervals (CI95%s) were calculated with GraphPad Prism (v.8.2) following the assumptions described by Gagnon et al..

Series [2] relates to MCTs. In kind it is in vivo, piglet. On the procedure: The piglets (n = 6) were inititally anaesthetised with intramuscular injections of stresnil and ursotamin, and anaesthesia was maintained with intravenous ursotamin and midazolam, as required. The hematocrit was measured in an ear vein blood sample collected just prior to imaging. Either saline (n = 3) or 25 mg/kg α-CCA-Na (n = 3) in saline was administrated ten min before i.v. administration of [^18F]FACH (261–327 MBq, corresponding to 218–852 pmol/kg) via an ear vein. Imaging was performed with a simultaneous hybrid PET/MR system (mMR Biograph; Siemens, Erlangen, Germany) equipped with dedicated phased-array surface. PET data were reconstructed into a 128 × 128 matrix (voxel size: 1.40 × 1.40 × 2.03 mm^3) using the built-in OSEM3D algorithm with eight iterations, 21 subsets, and a 3-mm Gaussian filter. The attenuation and decay corrected dynamic sequence consisted of 32 frames as follows: 1 × 15, 11 × 30, 1 × 45, 5 × 60, 1 × 90, 5 × 120, 1 × 180, 4 × 240, 1 × 300, 2 × 360 s, whereas activity concentrations in VOIs are represented in units of SUV or percentage of injected dose (%/ID). After completing the dynamic PET recording, piglets were euthanized with an i.v. overdose of T61 (Intervet Deutschland GmbH, Unterschleißheim, Germany) and tissues were sampled for radio-metabolism studies in selected animals.
as §2, §3

The subject of series [3] is MCTs. In words: Compartmental kinetic modelling of PET data in mice. It counts as in vivo, mouse. The settings on record: kidney cortex, 2-TCM, [18F]FACH after α-CCA-Na pre-treatment. As to the method:
(§4) Table 4 includes the results of 1-tissue-compartment kinetic modelling (1-TCM) of [^18F]FACH in the kidney cortex and the liver of the control and pre-treated mouse groups (α-CCA-Na and reference compound). […] The BPND was estimated as the ratio of [VT(control)/VT(pre-treatment)] − 1.
(§5) Kinetic analysis of reconstructed datasets was performed with PMOD software. First, image derived arterial input functions (IDIFs) were obtained from the left ventricle in mice and from an artery close to the kidney in piglet studies. IDIFs were corrected for partial volume effects, plasma fraction from hematocrit values (individually determined for each piglet directly before PET imaging; for mice set to 0.51 according to CD-1 Mouse Hematology sheet from Charles River Laboratories, 2011) and radio-metabolites (measured for piglets, and set to zero for mice). Tri-exponential metabolite-corrected fitted input functions were used for one and two tissue compartment modelling (1-TCM/2-TCM) of time activity curves (TACs) in tissue volumes of interest (VOIs). For both species the specific blood volume was set to 0.15 mL g^−1 in the kidney cortex and 0.128 mL g^−1 in the liver, according to published values.

In series [4] the test system is MCTs. In words: Compartmental kinetic modelling of PET data in piglets. It counts as in vivo, piglet. The note with it: living piglets, α-CCA-Na dose. As to the method:
as §4, §5

In series [5] the test system is MCTs. In words: Autoradiographic competition study in mouse kidney cryosections. In kind it is binding. The settings on record: 300 nM competitor, 1 nM [18F]FACH. As to the method:
Cryosections from the mouse kidney (10 µm) were cut on a microtome (Microm HM560, Thermo Scientific Microm, Fisher Scientific GmbH, Schwerte, Germany), mounted on glass slides (SuperFrost, Thermo Scientific Menzel, Fisher Scientific GmbH), dried for two hours at room temperature, and stored at −25 °C. Before the binding experiment, the tissue slices were dried under a stream of cold air, pre-incubated with PBS (pH 7.4) for 15 min at room temperature and dried again before incubation with PBS containing [^18F]FACH (1.2 nM) without (total binding) and with different concentrations of FACH-Na (10 µM–0.1 nM; homologous competition) for 60 min. Specific binding to MCTs of [^18F]FACH in cryosections of mouse kidney was determined after co-incubation of 1 nM [^18F]FACH with vehicle or 300 nM α-CCa-Na or 300 nM reference compound (homologous competition).
The incubation was terminated by washing with ice-cold buffer (50 mM TRIS-HCl, pH 7.4) twice for two minutes followed by dipping in ice-cold demineralized water for 5 s and drying under a stream of cold air. […] KD and Bmax values were calculated by the simplified Cheng and Prusoff equation (http://www3.uah.es/farmamol/Public/GraphPad/radiolig.htm, accessed on 5 February 2021):(1) KD=Ki=IC50−Radioligand (M) (2) Bmax=Top−Bottom/Radioligand (M)/(KD+Radioligand (M))

For series [6] the following is noted: in vivo.
Method: (§6) Radio-metabolites were analyzed by analytical and semi-preparative HPLC on a JASCO LC-2000 system (JASCO Labor- und Datentechnik, Gross-Umstadt, Germany), consisting of a PU-2080 Plus pump, AS-2055 Plus auto injector (100 μL sample loop) or a manual injection valve with a 5 mL sample loop, and a UV-2070 Plus detector coupled with a gamma radioactivity HPLC detector (Gabi Star, Raytest Isotopenmessgeräte GmbH, Straubenhardt, Germany). Data analysis was performed with the Galaxie chromatography software (Agilent Technologies, Santa Clara, CA, USA). […] For analytical and semi-preparative radio-HPLC analyses, Reprosil-Pur columns (C18-AQ 250 × 4.6 mm; 5 μm; and C18-AQ 150 × 4.6 mm; 10 μm; Dr. Maisch HPLC GmbH; Ammerbuch-Entringen, Germany) were used. Acetonitrile (ACN) mixed with a 20 mM aqueous solution of ammonium acetate (NH4OAc) was used as eluent.
(§7) In corresponding piglet studies (n = 5), plasma was separated from the arterial blood samples drawn during the PET recordings at certain time points.
(§8) In piglet studies, similar procedures were implemented for preparing samples from plasma collected at 15, 30, 45 and 60 min p.i., with the exception of collecting the urine sample only at 60 min p.i. Additionally, in order to measure the radio-metabolites in the piglet kidney, the tissue was resected at 60 min p.i. and after washing in PBS, samples of the kidney cortex and medulla were isolated and homogenized in demineralized water (2 mL/g tissue) using a borosilicate glass mortar with ten strokes of a PTFE plunger at 1000 rpm (Potter S, Homogenizer, B. Braun Biotech, Sartorius AG, Göttingen, Germany). Protein precipitation was performed by addition of ice-cold ACN/H2O at a ratio of 4:1 (v/v) of organic solvent to each tissue sample. The samples were vortexed for 3 min, placed on ice for 3 min, and the suspensions were centrifuged at 12,000 rpm at 4 °C for 5 min. For the second extraction, the precipitates were washed with 200 μL of the solvent mixture and subjected to the same procedure. The combined supernatants (total volume between 68 mL) were concentrated at 70 °C under argon flow to a final volume of approximately 2 mL and analyzed by semi-preparative RP radio-HPLC. […] The analyses were performed in gradient mode using 10% ACN/20 mM NH4OAc (aq.) as eluent A and 90% ACN/20 mM NH4OAc (aq.) as eluent B under the following conditions:
(§9) To determine the percentage of the radioactivity in the supernatants compared to the total radioactivity aliquots were taken at each step and, as well as the precipitates, quantified by gamma counting.
(§10) By interpolation of the measured radio-metabolite fractions from the piglet PET studies, the continuous TACs for [^18F]FACH and its radio-metabolites were calculated. Subsequently, the magnitudes of the whole body rate constant for [^18F]FACH metabolism (k0) and the elimination rate constant for the radio-metabolites (k−1) under control and pre-treated conditions were calculated as described previously [32]. Graphical analysis of the integrals of the plasma time-concentration series of PET tracers and their radio-metabolite(s) follow a linear relationship [32, 47], where the ordinate intercept is equal to the whole body fractional rate constant for the metabolism of the parent, designated k0 (min^−1). The linear regression slope corresponds to the fractional rate constant for the elimination of the radio-metabolite from circulation, designated k−1 (min^−1), which indicates the renal clearance of the radio-metabolite.
Series [7] in a line: Metabolism and renal excretion of [18F]FACH in piglets (radio-HPLC, graphical analysis). The note with it: piglet pre-treated with α-CCA-Na, 60 min p.i.
Method: as §6, §7, §8, §9, §10
The test system of series [8] is MCTs. Description: PET displacement study in mice. In kind it is in vivo, mouse. As to the method:
as §1, §2

The subject of series [9] is MCT1. More on the design: method as in PMID 8779821. The settings on record: cited from earlier work.
A short description of series [10]: Extended single dose toxicity study in rats. In kind it is in vivo, rat. As to the method: The extended single dose toxicity studies of FACH in male (n = 15) and female (n = 15) outbred Wistar rats were performed in the Biological Testing Laboratory (BTL) in Russia (Study Number 680/19). The test item FACH-Na was administered by single bolus i.v. injection at doses of 6.2, 62 and 620 μg/kg body weight (bw). Mortality, clinical pathology parameters (hematology and serum chemistry), organ weights and microscopic tissue parameters were investigated 24 h and two weeks after treatment.

Series [11] concerns MCT1. Details: method as in PMID 31017677. The note with it: L-[14C]lactate uptake, rat brain endothelial cells; read-out: IC50 towards MCT1; cited from earlier work.
The next series has as its system MCT4. Details: method as in PMID 31017677. The settings on record: L-[14C]lactate uptake, MDA-MB231 cells; read-out: IC50 towards MCT4; cited from earlier work.
Where [12] appears, read: mice, reference compound 10 mg/kg pre-treatment.

Read-outs that look alike come from different tables or passages of the source.

Turning to `N#CC(=Cc1ccc(O)cc1)C(=O)[O-].[Na+]` [α-CCA-Na, reference compound], in the series with MCTs [1] (25 mg/kg), the “AUC0–60 min gall bladder” value is 486 SUV min, the “AUC0–60 min kidney cortex” value was found to be 153 SUV min, the “AUC0–60 min liver” value was found to be 417 SUV min and the “AUC0–60 min small intestine” value is 180 SUV min. Also, in the series on MCTs [1] (25 mg/kg), the “AUC0–60 min whole blood” value amounted to 63 SUV min. In the series with MCTs [2] (in vivo, 25 mg/kg), the “AUC0–60 min gall bladder” value came out at 4453 SUV min, the “AUC0–60 min kidney cortex” value is 178 SUV min, the “AUC0–60 min kidney medulla” value was determined as 1264 SUV min and the “AUC0–60 min liver” value worked out at 286 SUV min. In the series on MCTs [2] (in vivo, 25 mg/kg), the “AUC0–60 min plasma” value is given as 40 SUV min and the “AUC0–60 min vertebrae” value is 100 SUV min. Moreover, the “kidney uptake blocked by α-CCA-Na pre-treatment” value in the series with MCTs [2] (piglets) is reported as “about 60%”. Also, in the series with MCTs [2] (piglets, α-CCA-Na 25 mg/kg pre-treatment), the “reduction of [18F]FACH AUC0–60min in kidney medulla” value turned out to be 50%. For the same compound, the “BPND = k3/k4 (2-TCM)” value in the series on MCTs [3] was 12.96±5.40 1/1. Besides, the “specifically bound radiotracer displaced” value with MCTs [4] is “around 50%”. Besides, the “displacement of [18F]FACH” value in the series on MCTs [5] is given as 8%. Moreover, the “rate constant for elimination of radio-metabolites from plasma (k−1)” value in series [6] was found to be 0.020 ± 0.003 min⁻¹. Moreover, in series [7], the “parent fraction of [18F]FACH in kidney cortex” value was 17.0%. In addition, in the series with MCTs [8] (mice, 5 min after i.v. α-CCA-Na 25 mg/kg given 20 min after tracer), the “decrease of kidney cortex SUV” value is reported as 66%. Also, the “kidney cortex SUV” value in the series with MCTs [8] (mouse, in vivo) is 1.41 ± 0.36. The “selectivity for MCT1 (MCT1/4) compared to the other subtypes” value in the series with MCT1 [9] was 10 fold.

As for `N#CC(=Cc1ccc(O)cc1)C(=O)O` [α-CCA, α-cyano-4-hydroxycinnamic acid], in the series on MCT1 [9], the “selectivity for MCT1 (MCT1/4) compared to the other subtypes” value is given as “ten-fold higher selectivity”.

For `CCCN(CCCF)c1ccc(/C=C(\C#N)C(=O)[O-])c(OC)c1.[Na+]` [FACH-Na], in the series with MCTs [1] (setting [12]), the “reduction of [18F]FACH AUC0–60min in kidney cortex vs control” value was 79% and the “reduction of [18F]FACH AUC0–60min in liver vs control” value was found to be 44%. Besides, in the series with MCTs [1] (10 mg/kg), the “AUC0–60 min gall bladder” value is recorded as 1388 SUV min, the “AUC0–60 min kidney cortex” value was 62 SUV min, the “AUC0–60 min liver” value came to 250 SUV min and the “AUC0–60 min small intestine” value came to 405 SUV min. Also, the “AUC0–60 min whole blood” value in the series on MCTs [1] (10 mg/kg) is given as 125 SUV min. Moreover, the “no-observed-adverse-effect-level (NOAEL)” value in [10] (Wistar rats, single bolus i.v.) was found to be 620 µg FACH-Na/kg bodyweight. Also, in series [10] (rats), the “NOAEL relative to the equivalent to the human dose (0.1 µg/kg)” value is reported as “approximately 1000 fold”. The “displacement of [18F]FACH” value in the series on MCTs [5] was found to be 41%.

The IC50 is the concentration needed to halve the response being measured. Consider `CCCN(CCCF)c1ccc(/C=C(\C#N)C(=O)O)c(OC)c1` [FACH], for which the IC50 is 11 nM in the series with MCT1 [11] and 6.5 nM in the series with MCT4.

(Values after paper PMC7915902, “Preclinical Evaluation of [^18F]FACH in Healthy Mice and Piglets: An ^18F-Labeled Ligand for Imaging of Monocarboxylate Transporters with PET” (International Journal of Molecular Sciences, 2021).)
